Assay results: publication PMC3731320, “Identification of Benzimidazole Diamides as Selective Inhibitors of the Nucleotide-Binding Oligomerization Domain 2 (NOD2) Signaling Pathway” (PLoS ONE, 2013)
Where two headings read alike, the source gives them in different places.

How the values were obtained:
NOD2 [1] = assay: IL-8 secretion induced by NOD2 over-expression (BacMam) in HEK293T cells, activator-independent; type: cell-based, human
Experimental: (§1) Over-expression of NOD1 and NOD2 was achieved by transduction of HEK293T cells with either NOD1 or NOD2 BacMam recombinant baculoviruses. […] The effect of compounds on activator-independent NOD1/2 signaling was determined by 30 minute pre-treatment of cells (in 96-well plates seeded the previous day in DMEM high glucose with 10% FBS at 60,000 cells/well) followed by infection with NOD1 or NOD2 BacMam virus (MOI = 50). IL-8 was measured in conditioned medium after 24 hour incubation at 37 °C. To determine the effect of compounds on NOD1/2 activator-dependent IL-8 secretion in BacMam transduced HEK293T, the cells were infected with virus for 6 hours (MOI = 50), and following the removal of virus the cells were cultured over-night. The next day medium was again replaced and cells pre-treated with compound for 30 minutes followed by stimulation with either MDP (30 ng/mL) or iE-DAP (300 ng/mL). IL-8 was measured in conditioned medium by HTRF after 24-hour incubation at 37 °C.

NOD2 [2] = assay: MDP-stimulated cytokine release in primary human monocytes; type: cell-based; settings: primary human monocytes
Experimental: […] The concentration of IL-1β, IL-6 and TNFα in medium samples collected after 24-hour treatment was determined using the MS6000 human pro-inflammatory-4 II tissue culture kit (Meso Scale Discovery). The IL-8 concentration was determined by HTRF.

NOD2 [3] = assay: Western blot of MAPK phosphorylation and IκBα in MDP-stimulated 293/hNOD2 cells; type: cell-based, human; settings: GSK669 at 1 and 10 μM
Experimental: Confluent cultures of 293/-hNOD1 and -hNOD2 cells in 24-well plates were serum-starved over-night. The next day, cells were pre-incubated for 1 hour with compound and then stimulated for 1 hour with either 50 μg/mL Tri-DAP or 25 μg/mL MDP, respectively. Whole cell lysates were prepared in 1X cell lysis buffer (Cell Signaling Technology) containing additional inhibitors of aspartic, cysteine and serine proteases and aminopeptidases (protease inhibitor cocktail set III, EMD Biosciences) and inhibitors of multiple phosphatases (phosphatase inhibitor cocktail sets II and III, Sigma-Aldrich). The levels of phosphorylated and total p38, JNK, ERK1/2 and total IκBα were determined by immunoblotting of ∼20 μg protein per sample using the following primary antibodies: phospho-p38 MAPK (12F8, #4631), p38 MAPK (#9212), phospho-JNK (#9251), JNK (#9252) and IκBα (#9242) all purchased from Cell Signaling Technology, and phospho-ERK1/2 (sc-7383) and ERK1/2 (sc-94) antibodies from Santa Cruz Biotechnology.

TNFR1 = assay: TNFα-stimulated (TNFR1-induced) IL-8 release in 293/hNOD2 cells; type: cell-based, human; settings: read-out: IC50 293/hNOD2 TNFα, IL-8 end-point, 20 ng/mL rhTNFα
Experimental: After 24 hours the amount of IL-8 secreted into the medium was determined by homogeneous time resolved fluorescence (HTRF) assay by the direct addition of a 1:1 mix of europium cryptate and XL665-conjugated anti-IL-8 antibodies according to the manufacturer's instructions (Cisbio).

NOD1 [4] = assay: IL-8 secretion induced by NOD1 over-expression (BacMam) in HEK293T cells with or without iE-DAP; type: cell-based, human
Experimental: as §1

[5] = target: T1, full length human FLAG-6His tagged RIP2 (Homo sapiens, UniProt O43353); assay: RIP2 kinase autophosphorylation assay (ADP-Glo); type: biochemical; settings: autophosphorylation of RIPK2; 10 μM ATP
T1 construct: autophosphorylation of full length human FLAG-6His tagged RIP2; FLAG; 6His; made in house
Experimental: Direct effects of compounds on RIP2 kinase activity was determined by autophosphorylation of full length human FLAG-6His tagged RIP2 expressed and purified from baculovirus. Enzyme was pre-incubated with compounds in assay buffer (50 mM HEPES pH 7.5, 25 mM MgCl2, 0.05%[w/v] CHAPS, 1 mM DTT and 0.05 mg/mL BSA) in 384-well plates, and then incubated with 10μM ATP for 2 hours at room temperature. The amount of ADP generated was measured using the ADP-Glo universal ADP detection assay for kinases (Promega) and luminescence quantified on a ViewLux imager.

NOD1 [6] = assay: Tri-DAP-stimulated IL-8 release in HCT116 cells (endogenous NOD1); type: cell-based, human
Experimental: Compound activity on endogenous NOD1 and NOD2 receptors was determined by inhibition of either Tri-DAP or MDP-stimulated IL-8 release, respectively, using HCT116 human colon carcinoma cells. […] The cells were maintained in DMEM high glucose medium supplemented with 25 mM HEPES and 10% FBS. For assay, cells were seeded into 96 well plates (90,000 cells/well) in DMEM containing 1% FBS and pre-incubated with compounds for 1 hour before addition of either 1 μg/mL MDP or 25 μg/mL Tri-DAP. The level of IL-8 released into medium after 24-hour incubation was determined by HTRF assay as described above and fluorescence measured on an Envision model 2102 multilabel plate reader (Perkin Elmer).

[7] = MOI 50, 24 hours, GSK669 5 μM, IKK inhibitor 0.5 μM

T1 sequence (O43353 whole entry): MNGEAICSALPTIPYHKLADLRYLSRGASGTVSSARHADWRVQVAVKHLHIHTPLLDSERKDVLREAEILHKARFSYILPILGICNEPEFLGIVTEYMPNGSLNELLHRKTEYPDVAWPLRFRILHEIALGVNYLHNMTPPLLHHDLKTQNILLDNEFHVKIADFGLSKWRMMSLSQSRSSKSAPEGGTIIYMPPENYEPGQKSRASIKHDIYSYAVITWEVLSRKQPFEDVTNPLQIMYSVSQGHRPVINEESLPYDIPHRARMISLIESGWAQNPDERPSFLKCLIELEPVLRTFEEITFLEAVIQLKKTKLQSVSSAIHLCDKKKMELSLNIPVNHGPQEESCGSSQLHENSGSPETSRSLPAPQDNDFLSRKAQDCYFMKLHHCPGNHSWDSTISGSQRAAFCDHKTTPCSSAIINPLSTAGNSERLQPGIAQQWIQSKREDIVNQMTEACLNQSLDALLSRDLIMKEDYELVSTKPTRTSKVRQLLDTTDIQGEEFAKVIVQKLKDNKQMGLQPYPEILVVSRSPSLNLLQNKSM

## O=C(Cn1c(CCNC(=O)c2ccccc2)nc2ccccc21)Nc1ccc2c(c1)CCC2 [Compound 1, N-(2-(1-(2-((2,3-dihydro-1H-inden-5-yl)amino)-2-oxoethyl)-1H-benzo[d]imidazol-2-yl)ethyl)benzamide]
NOD2 [1]; [7]
  effect on IL-8 secretion induced by NOD2 virus alone, single concentration: failed to block IL-8 secretion
NOD2 [1]; NOD2 virus 24 hours, GSK669 up to 50 μM
  effect on IL-8 secretion induced by NOD2 over-expression: failed to inhibit this response
NOD2 [2]; compound 5 μM, MDP 0.1 μg/mL, IL-1β, IL-6, IL-8, TNFα, 24 hours
  effect on MDP-stimulated cytokine secretion, single concentration: partial inhibition
NOD2 [2]; dose response
  effect on release of IL-8, IL-6, TNFα and IL-1β in monocytes stimulated with MDP: dose-dependently inhibited
NOD2 [3]
  effect on MDP-induced p-p38, p-JNK and total IκBα: prevented MDP-induced increases in p-p38 and p-JNK and MDP-induced reduction in total IκBα
TNFR1; listed as GSK669
  IC50: > 30 µM
TNFR1; listed as GSK669 (1)
  IC50: > 100 µM
NOD1 [4]; [7]
  effect on IL-8 secretion induced by NOD1 virus alone, single concentration: failed to block IL-8 secretion
NOD1 [4]; in the presence or absence of iE-DAP
  effect on IL-8 secretion induced by over-expression of NOD1: had no effect
[5]
  IC50: > 100 µM
NOD1 [6]; Homo sapiens, HCT-116, IL-8 end-point, 25 μg/mL Tri-DAP
  IC50: > 50 µM
NOD1 [6]; Tri-DAP 25 μg/mL, 1 hour pre-treatment
  effect on IL-8 secretion induced by Tri-DAP in HCT116 cells: had no effect
